Consider eleven compounds from US12122778B2, “Activating pyruvate kinase R” (Novo Nordisk Health Care AG, priority 2018, dated 2024).

Experiment [1] concerns the target PKR(R510Q) (Homo sapiens, UniProt P30613, R510Q). In words: Luminescence Biochemical Assay (Kinase Glo Plus), PKR R510Q mutant. Particulars: without FBP; for activation at 1.54 µM: 1.54 μM compound, read-out: AC50 LUM KGP woFBP % Fold@1.54 μM mean; for AC50: read-out: AC50 LUM KGP woFBP AC50 μM gmean; for Emax: read-out: AC50 LUM KGP woFBP MAX % FOLD mean.
Experiment [2] deals with PKR(wt) (Homo sapiens, UniProt P30613). Description: Luminescence Biochemical Assay (Kinase Glo Plus), wild type PKR. Particulars: without FBP; for activation at 1.54 µM: 1.54 μM compound, read-out: AC50 LUM KGP woFBP % Fold@1.54 μM mean; for AC50: read-out: AC50 LUM KGP woFBP AC50 μM gmean; for Emax: read-out: AC50 LUM KGP woFBP MAX % FOLD mean.
The target of experiment [3] is PKR(G332S) (Homo sapiens, UniProt P30613, G332S). In words: Luminescence Biochemical Assay (Kinase Glo Plus), PKR G332S mutant. Particulars: with FBP; for activation at 1.54 µM: 1.54 μM compound, read-out: AC50 LUM KGP FBP % Fold@1.54 μM mean; for AC50: read-out: AC50 LUM KGP FBP AC50 μM gmean (column A); for Emax: read-out: AC50 LUM KGP FBP MAX % FOLD mean.

The structures appear in SMILES notation. Bounds are passed on as bounds.

Sequence of PKR(R510Q) (P30613 whole entry R510Q): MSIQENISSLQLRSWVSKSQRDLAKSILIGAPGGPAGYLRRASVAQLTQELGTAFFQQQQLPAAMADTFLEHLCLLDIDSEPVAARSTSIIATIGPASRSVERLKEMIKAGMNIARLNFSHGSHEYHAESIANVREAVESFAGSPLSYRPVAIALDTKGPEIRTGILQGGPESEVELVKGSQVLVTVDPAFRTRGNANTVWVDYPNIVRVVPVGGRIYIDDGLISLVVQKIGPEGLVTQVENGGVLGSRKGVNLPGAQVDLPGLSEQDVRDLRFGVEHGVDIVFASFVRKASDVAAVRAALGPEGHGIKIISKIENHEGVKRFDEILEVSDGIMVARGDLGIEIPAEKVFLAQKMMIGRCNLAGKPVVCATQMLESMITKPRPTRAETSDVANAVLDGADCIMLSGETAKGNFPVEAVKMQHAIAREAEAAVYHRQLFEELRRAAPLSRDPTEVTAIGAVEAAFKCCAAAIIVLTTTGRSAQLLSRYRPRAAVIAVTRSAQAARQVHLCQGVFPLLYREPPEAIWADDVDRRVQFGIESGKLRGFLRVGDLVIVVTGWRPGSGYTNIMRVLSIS
Sequence of PKR(wt) (P30613 whole entry): as the sequence (P30613 whole entry R510Q) above, with Q510R counted along it
Sequence of PKR(G332S) (P30613 whole entry G332S): as the sequence (P30613 whole entry R510Q) above, with G332S, Q510R counted along it

As to `O=C(C(O)c1ccc(C(F)(F)F)cc1)N1CC2=C(C1)CN(S(=O)(=O)c1ccc(OC(F)F)cc1)C2` (stereo not drawn) [Example 18-32, 1-{5-[4-(Difluoromethoxy)benzenesulfonyl]-1H,2H,3H,4H,5H,6H-pyrrolo[3,4-c]pyrrol-2-yl}-2-hydroxy-2-[4-(trifluoromethyl)phenyl]ethan-1-one], the activation at 1.54 µM in experiment [1], in experiment [2] and in experiment [3] was 75 to 250% in each case. Besides, the AC50 in experiment [1], in experiment [2] and in experiment [3] was 0.1 to 1 µM each time. In addition, the Emax was 250 to 500% in experiment [1], 250 to 500% in experiment [2] and 75 to 250% in experiment [3].

Regarding `COc1cccc(CNC(=O)N2CC3=C(C2)CN(S(=O)(=O)c2ccc4ncsc4c2)C3)c1` [Example 21-17, 5-(1,3-Benzothiazole-6-sulfonyl)-N-[(3-methoxyphenyl)methyl]-1H,2H,3H,4H,5H,6H-pyrrolo[3,4-c]pyrrole-2-carboxamide], in experiment [1], the activation at 1.54 µM was 75 to 250%, the AC50 was 1 to 40 µM and the Emax lay in the range of 75 to 250%. Moreover, in experiment [2], the activation at 1.54 µM lay within 75 to 250%, the AC50 was no more than 0.1 µM and the Emax was 75 to 250%. In experiment [3], the activation at 1.54 µM is 75 to 250%, the AC50 was no more than 0.1 µM and the Emax is 75 to 250%.

With `Cc1cccc(S(=O)(=O)N2CC3=C(CN(C(=O)NCc4ccccc4F)C3)C2)n1` [Example 15-1, N-[(2-fluorophenyl)methyl]-5-(6-methylpyridine-2-sulfonyl)-1H,2H,3H,4H,5H,6H-pyrrolo[3,4-c]pyrrole-2-carboxamide], in experiment [1], the activation at 1.54 µM is 250 to 50000%, the AC50 was no more than 0.1 µM and the Emax is 250 to 500%. Further, in experiment [2], the activation at 1.54 µM lay in the range of 250 to 50000%, the AC50 is no more than 0.1 µM and the Emax was in the range of 250 to 500%. In experiment [3], the activation at 1.54 µM lay in the range of 75 to 250%, the half-maximal activity concentration (AC50) lay in the range of 0.1 to 1 µM and the Emax was in the range of 75 to 250%.

`Cc1nn(C)c(Cl)c1S(=O)(=O)N1CC2=C(CN(C(=O)[C@H](O)c3ccccc3)C2)C1` [Example 18-43, (2R)-1-{5-[(5-chloro-1,3-dimethyl-1H-pyrazol-4-yl)sulfonyl]-1H,2H,3H,4H,5H,6H-pyrrolo[3,4-c]pyrrol-2-yl}-2-hydroxy-2-phenylethan-1-one]: the activation at 1.54 µM in experiment [1], in experiment [2] and in experiment [3] was 75 to 250% in each case. In addition, the AC50 in experiment [1], in experiment [2] and in experiment [3] was 1 to 40 µM in each case. Further, the Emax in experiment [1], in experiment [2] and in experiment [3] was 75 to 250% in each case.

As for `O=C(NCc1ccccc1F)N1CC2=C(C1)CN(S(=O)(=O)c1ccc3ncsc3c1)C2` [Example 21-20, 5-(1,3-Benzothiazole-6-sulfonyl)-N-[(2-fluorophenyl)methyl]-1H,2H,3H,4H,5H,6H-pyrrolo[3,4-c]pyrrole-2-carboxamide], in experiment [1], the activation at 1.54 µM was in the range of 250 to 50000%, the AC50 was no more than 0.1 µM and the Emax lay within 250 to 500%. Moreover, in experiment [2], the activation at 1.54 µM was in the range of 250 to 50000%, the AC50 was no more than 0.1 µM and the Emax lay within 250 to 500%. In experiment [3], the activation at 1.54 µM is 75 to 250%, the AC50 is no more than 0.1 µM and the Emax was 75 to 250%.

With `O=C(N1CC2=C(C1)CN(S(=O)(=O)c1ccc(OC(F)F)cc1)C2)C(F)(F)c1ccccc1` [Example 18-25, 1-(5-((4-(Difluoromethoxy)phenyl)sulfonyl)-3,4,5,6-tetrahydropyrrolo[3,4-c]pyrrol-2(1H)-yl)-2,2-difluoro-2-phenylethan-1-one], in experiment [1], the activation at 1.54 µM was 250 to 50000%, the AC50 is no more than 0.1 µM and the Emax lay within 250 to 500%. For the same compound, in experiment [2], the activation at 1.54 µM lay within 250 to 50000%, the concentration at half-maximal activity (AC50) was no more than 0.1 µM and the Emax was in the range of 250 to 500%. In experiment [3], the activation at 1.54 µM is 75 to 250%, the AC50 was no more than 0.1 µM and the Emax is 75 to 250%.

As to `O=C(Cc1ccc[nH]1)N1CC2=C(C1)CN(S(=O)(=O)c1cccnc1)C2` [Example 18-73, 1-[5-(Pyridine-3-sulfonyl)-1H,2H,3H,4H,5H,6H-pyrrolo[3,4-c]pyrrol-2-yl]-2-(1H-pyrrol-2-yl)ethan-1-one], in experiment [1], the activation at 1.54 µM is 75 to 250%, the AC50 was 1 to 40 µM and the Emax lay within 75 to 250%. Also, in experiment [2], the activation at 1.54 µM lay in the range of 75 to 250%, the AC50 was in the range of 1 to 40 µM and the Emax is 75 to 250%. In experiment [3], the activation at 1.54 µM was 75 to 250%, the AC50 is 1 to 40 µM and the Emax is 75 to 250%.

For `Cc1ccc(CC(=O)N2CC3=C(C2)CN(S(=O)(=O)c2ccccn2)C3)cn1` [Example 18-61, 2-(6-Methylpyridin-3-yl)-1-[5-(pyridine-2-sulfonyl)-1H,2H,3H,4H,5H,6H-pyrrolo[3,4-c]pyrrol-2-yl]ethan-1-one], in experiment [1], the activation at 1.54 µM fell in the range of 75 to 250%, the concentration at half-maximal activity (AC50) was in the range of 1 to 40 µM and the Emax was in the range of 250 to 500%. Besides, in experiment [2], the activation at 1.54 µM was 75 to 250%, the AC50 lay in the range of 1 to 40 µM and the Emax fell in the range of 250 to 500%. In addition, in experiment [3], the activation at 1.54 µM was 75 to 250%, the AC50 was 1 to 40 µM and the Emax is 75 to 250%.

Turning to `Cc1cc(CNC(=O)N2CC3=C(C2)CN(S(=O)(=O)c2ccccn2)C3)no1` [Example 21-43, N-[(5-methyl-1,2-oxazol-3-yl)methyl]-5-(pyridine-2-sulfonyl)-1H,2H,3H,4H,5H,6H-pyrrolo[3,4-c]pyrrole-2-carboxamide], in experiment [1], the activation at 1.54 µM is 75 to 250%, the AC50 lay in the range of 1 to 40 µM and the Emax lay in the range of 250 to 500%. In experiment [2], the activation at 1.54 µM lay in the range of 75 to 250%, the AC50 fell in the range of 1 to 40 µM and the Emax was 250 to 500%. Besides, in experiment [3], the activation at 1.54 µM was 75 to 250%, the AC50 was in the range of 0.1 to 1 µM and the Emax lay in the range of 75 to 250%.

Turning to `O=C([C@H]1CCCO1)N1CC2=C(C1)CN(S(=O)(=O)c1cccnc1)C2` [Example 18-59, 3-({5-[(2R)-oxolane-2-carbonyl]-1H,2H,3H,4H,5H,6H-pyrrolo[3,4-c]pyrrol-2-yl}sulfonyl)pyridine], in experiment [1], the activation at 1.54 µM is 75 to 250%, the AC50 lay in the range of 1 to 40 µM and the Emax is 75 to 250%. For the same compound, in experiment [2], the activation at 1.54 µM lay within 75 to 250%, the AC50 is 1 to 40 µM and the Emax is 75 to 250%. In experiment [3], the activation at 1.54 µM lay in the range of 75 to 250%, the AC50 was in the range of 1 to 40 µM and the Emax lay in the range of 75 to 250%.

Turning to `O=C(C(O)c1cccnc1)N1CC2=C(C1)CN(S(=O)(=O)c1ccc(OC(F)F)cc1)C2` (stereo not drawn) [Example 9-1, 1-(5-[[4-(Difluoromethoxy)benzene]sulfonyl]-1H,2H,3H,4H,5H,6H-pyrrolo[3,4-c]pyrrol-2-yl)-2-hydroxy-2-(pyridin-3-yl)ethan-1-one], the activation at 1.54 µM in experiment [1] fell in the range of 250 to 50000%; in experiment [2], 250 to 50000%; in experiment [3], 75 to 250%. The AC50 in experiment [1], in experiment [2] and in experiment [3] was no more than 0.1 µM in each case. Besides, the Emax in experiment [1] fell in the range of 250 to 500%; in experiment [2] it was 250 to 500%; in experiment [3], 75 to 250%.
